Data on four molecules can be found in ChEMBL document CHEMBL1142650, “Novel transient receptor potential vanilloid 1 receptor antagonists for the treatment of pain: structure-activity relationships for ureas with quinoline, isoquinoline, quinazoline, phthalazine, quinoxaline, and cinnoline moieties” (J Med Chem, 2005).

The target in series [1] is Transient receptor potential cation channel subfamily V member 1 (Homo sapiens, UniProt Q8NER1). The series is described as follows: Inhibition of binding to human vanilloid receptor subtype VR1.
Transient receptor potential cation channel subfamily V member 1 (Homo sapiens, UniProt Q8NER1), sequence (Q8NER1 whole entry): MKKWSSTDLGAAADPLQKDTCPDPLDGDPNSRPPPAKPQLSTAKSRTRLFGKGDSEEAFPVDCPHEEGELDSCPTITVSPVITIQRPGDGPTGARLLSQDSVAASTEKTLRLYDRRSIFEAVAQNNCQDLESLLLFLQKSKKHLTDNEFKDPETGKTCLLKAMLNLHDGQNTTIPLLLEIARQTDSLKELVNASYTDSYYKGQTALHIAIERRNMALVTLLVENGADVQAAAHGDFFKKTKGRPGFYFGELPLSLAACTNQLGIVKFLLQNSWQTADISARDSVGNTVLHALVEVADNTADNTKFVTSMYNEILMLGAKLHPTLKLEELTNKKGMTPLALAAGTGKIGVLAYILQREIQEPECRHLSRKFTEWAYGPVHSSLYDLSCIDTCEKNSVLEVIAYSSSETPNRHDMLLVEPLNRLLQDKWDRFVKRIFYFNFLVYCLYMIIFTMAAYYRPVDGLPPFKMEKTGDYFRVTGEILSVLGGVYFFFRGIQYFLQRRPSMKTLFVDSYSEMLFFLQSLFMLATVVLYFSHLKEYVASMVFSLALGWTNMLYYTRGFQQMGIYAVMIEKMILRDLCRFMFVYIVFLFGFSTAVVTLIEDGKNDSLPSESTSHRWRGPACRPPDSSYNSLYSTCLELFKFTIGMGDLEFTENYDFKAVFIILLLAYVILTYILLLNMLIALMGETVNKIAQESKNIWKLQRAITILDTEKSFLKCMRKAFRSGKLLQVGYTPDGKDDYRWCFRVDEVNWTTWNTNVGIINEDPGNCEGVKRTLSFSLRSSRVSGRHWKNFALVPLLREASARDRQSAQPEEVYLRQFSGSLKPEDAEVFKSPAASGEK
A short description of series [2]: Volume of distribution in rat. The format is ADME, organism-based. As to conditions: in vivo, read-out: Vbeta.
A short description of series [3]: Half life in rat. As to conditions: in vivo. The format is ADME.
Series [4] is described as follows: Plasma protein binding in human. In kind it is ADME, cell-free. Conditions: read-out: Plasma protein binding (converted).
The species entered for another series is Rattus norvegicus. Kind of series: Concentration required to reduce thermal hyperalgesia in the complete Freund's adjuvant (CFA) model of chronic inflammatory pain. The format is functional.
The nature of series [5]: Plasma protein binding in rat. In kind it is ADME, cell-free. As to conditions: read-out: Plasma protein binding (converted).
Series [6] is described as follows: Maximum concentration in rat. Conditions: in vivo. In kind it is ADME, organism-based.
For series [7], the target named is Transient receptor potential cation channel subfamily V member 1 (Rattus norvegicus, UniProt O35433). Kind of series: Inhibition of binding to rat transient receptor potential vanilloid 1 receptor.
Transient receptor potential cation channel subfamily V member 1 (Rattus norvegicus, UniProt O35433), sequence (O35433 whole entry): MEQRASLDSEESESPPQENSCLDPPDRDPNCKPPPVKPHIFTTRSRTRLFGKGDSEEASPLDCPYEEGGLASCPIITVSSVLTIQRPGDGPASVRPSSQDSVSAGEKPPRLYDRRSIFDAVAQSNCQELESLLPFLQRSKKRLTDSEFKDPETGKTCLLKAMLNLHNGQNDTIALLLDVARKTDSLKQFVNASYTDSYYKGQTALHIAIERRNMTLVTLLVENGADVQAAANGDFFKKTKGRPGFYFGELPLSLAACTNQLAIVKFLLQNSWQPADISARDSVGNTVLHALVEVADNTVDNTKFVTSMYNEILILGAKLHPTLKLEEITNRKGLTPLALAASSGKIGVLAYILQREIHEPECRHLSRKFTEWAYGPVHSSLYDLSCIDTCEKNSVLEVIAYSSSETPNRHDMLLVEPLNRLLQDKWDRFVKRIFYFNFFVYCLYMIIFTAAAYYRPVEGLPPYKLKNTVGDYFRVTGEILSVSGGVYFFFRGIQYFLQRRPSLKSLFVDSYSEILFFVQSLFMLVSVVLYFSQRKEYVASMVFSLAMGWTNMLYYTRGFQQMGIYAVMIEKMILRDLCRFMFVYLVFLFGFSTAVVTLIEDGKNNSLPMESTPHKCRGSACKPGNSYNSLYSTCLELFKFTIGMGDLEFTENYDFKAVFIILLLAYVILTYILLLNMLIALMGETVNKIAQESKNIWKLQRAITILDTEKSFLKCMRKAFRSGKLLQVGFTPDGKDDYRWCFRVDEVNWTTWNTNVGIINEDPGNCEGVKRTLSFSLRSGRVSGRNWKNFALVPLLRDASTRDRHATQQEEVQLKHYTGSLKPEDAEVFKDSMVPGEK

The structures appear in SMILES notation.

As usually defined, the IC50 is the point on the concentration scale where inhibition reaches its midpoint. Lower therefore signals inhibition by little substance. For the molecule `O=C(NCc1cccc(C(F)(F)F)c1)Nc1cccc2cnccc12`, the IC50 in series [1] came out at 51 nM.
As usually defined, the half-life is how long it takes for the measured level to halve. Lower therefore signals rapid decline. One may read the ED50 as the dose at which the effect has come halfway, by size or by number of responders. By Cmax is commonly meant the maximum level reached in the sampled fluid or tissue. On to `O=C(NCc1ccc(C(F)(F)F)cc1)Nc1cccc2cnccc12`, for which the IC50 in series [1] turned out to be 4 nM; in series [7], 24 nM. In series [2], the Vd was 0.6 L/kg. For the same molecule, the half-life in series [3] is 36 min. The fraction unbound in series [4] was 0.02; in series [5], 0.029. Moreover, the ED50 in the series filed under Rattus norvegicus is 30 µmol/kg. In series [6], the concentration peaked (Cmax) at 3000 ng/mL.
In series [1], `CSc1cccc(NC(=O)Nc2cccc3ccc(O)cc23)c1` came in with an IC50 of 22 nM.
On to `O=C(NCCc1cccc(C(F)(F)F)c1)Nc1cccc2cnccc12`, for which the IC50 in series [1] amounted to 20 nM.
